Source: ChEMBL document CHEMBL1201862, “PubChem BioAssay data set” (2004)
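Briefly, cells in 96-well plates were exposed to five compound concentrations for 48 h, and endpoints were estimated by linear interpolation. Here, GI50 denotes the concentration required for 50% inhibition of growth.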 Activity calls are given as the source filed them. Cut-off read from the data, not from the text of the source: active = GI50 up to about 1.1 µM and inactive = higher.

Assays:
Assay in all cases: NCI tumour cell line growth inhibition, 48 h
MDA-N = tested on: MDA-N
SF-268 = tested on: SF-268
NCI-H23 = tested on: NCI-H23
BT-549 = tested on: BT-549
786-0 = tested on: 786-0
HOP-62 = tested on: HOP-62
HCT-116 = tested on: HCT-116
K562 = tested on: K562
MDA-MB-231 = tested on: MDA-MB-231
PC-3 = tested on: PC-3
ACHN = tested on: ACHN
NCI-H226 = tested on: NCI-H226
HCT-15 = tested on: HCT-15
HT-29 = tested on: HT-29
Hs-578T = tested on: Hs-578T
NCI/ADR-RES = tested on: NCI/ADR-RES
OVCAR-8 = tested on: OVCAR-8
SNB-19 = tested on: SNB-19
MOLT-4 = tested on: MOLT-4

Row | Structure (SMILES) | GI50 (MDA-N) | GI50 (SF-268) | GI50 (NCI-H23) | GI50 (BT-549) | GI50 (786-0) | GI50 (HOP-62) | GI50 (HCT-116) | GI50 (K562) | GI50 (MDA-MB-231) | GI50 (PC-3) | GI50 (ACHN) | GI50 (NCI-H226) | GI50 (HCT-15) [µM] | GI50 (HT-29) | GI50 (Hs-578T) | GI50 (NCI/ADR-RES) | GI50 (OVCAR-8) | GI50 (SNB-19) | GI50 (MOLT-4)
1 | O=C(O)C(Cc1cccs1)C(=O)O | > 100 µM (inactive) | > 100 µM (inactive) | > 100 µM (inactive) | > 100 µM (inactive) | > 100 µM (inactive) | > 100 µM (inactive) | > 100 µM (inactive) | > 100 µM (inactive) | > 100 µM (inactive) | > 100 µM (inactive) | > 100 µM (inactive) | > 100 µM (inactive) | > 100 | > 100 µM (inactive) | > 100 µM (inactive) | > 100 µM (inactive) | > 100 µM (inactive) | > 100 µM (inactive) | 
2 | Cn1ncc2c(Nc3cccc(Cl)c3)nc(Nc3cccc(Cl)c3)nc21 |  | 14.1 µM (inactive) | 16.3 µM (inactive) | 21.8 µM (inactive) | 2.43 µM (inactive) | 17.3 µM (inactive) | 11.4 µM (inactive) | 1.75 µM (inactive) | 16.7 µM (inactive) | 8.24 µM (inactive) | 10.5 µM (inactive) | > 48.3 µM (inactive) | 4.43 | 3.87 µM (inactive) | 12 µM (inactive) | 9.71 µM (inactive) | 10.9 µM (inactive) | 19.1 µM (inactive) | 4.68 µM (inactive)
3 | O=C(O[C@H](/C=C/c1ccccc1)P1(=O)N(Cc2ccccc2)[C@H]2CCCC[C@@H]2N1Cc1ccccc1)c1ccccc1 | 3.52 µM (inactive) | 4.12 µM (inactive) | 3.51 µM (inactive) | 5.56 µM (inactive) | 3.7 µM (inactive) | 5.51 µM (inactive) | 2.79 µM (inactive) | 4.2 µM (inactive) | 3.49 µM (inactive) | 3.58 µM (inactive) | 4.56 µM (inactive) | 2.33 µM (inactive) | 3.22 | 3.8 µM (inactive) | 9.31 µM (inactive) | 3.05 µM (inactive) | 3.69 µM (inactive) | 5.31 µM (inactive) | 
4 | C1CSCCSCCCSCCSCCCSCCSCCCSCCSC1 | > 100 µM (inactive) | > 100 µM (inactive) | > 100 µM (inactive) | > 100 µM (inactive) | > 100 µM (inactive) | > 100 µM (inactive) | 62.8 µM (inactive) | > 100 µM (inactive) |  | 69.3 µM (inactive) | > 100 µM (inactive) | > 100 µM (inactive) | > 100 | > 100 µM (inactive) | > 100 µM (inactive) | > 100 µM (inactive) | > 100 µM (inactive) | > 100 µM (inactive) | > 100 µM (inactive)
5 | CC(=O)C1(/N=N/c2ccc(S(N)(=O)=O)cc2)CCOC1=O (stereo not drawn) | > 100 µM (inactive) | > 100 µM (inactive) | > 100 µM (inactive) | > 100 µM (inactive) | > 100 µM (inactive) | > 100 µM (inactive) | > 100 µM (inactive) |  | > 100 µM (inactive) | > 100 µM (inactive) | > 100 µM (inactive) | > 100 µM (inactive) | > 100 | > 100 µM (inactive) | > 100 µM (inactive) | > 100 µM (inactive) | > 100 µM (inactive) | > 100 µM (inactive) | 
6 | COc1ccc(NC(=O)C(C#N)=C(SC)SC)cc1 | > 100 µM (inactive) | > 100 µM (inactive) | > 100 µM (inactive) | > 100 µM (inactive) | > 100 µM (inactive) | > 100 µM (inactive) | > 100 µM (inactive) | > 100 µM (inactive) | > 100 µM (inactive) | > 100 µM (inactive) | > 100 µM (inactive) | > 100 µM (inactive) | > 100 | > 100 µM (inactive) | > 100 µM (inactive) |  |  | > 100 µM (inactive) | > 100 µM (inactive)
7 | CC1=C(C(=O)NC2CCCCC2)CC(C(=O)NC2CCCCC2)=C(C)N1 | > 100 µM (inactive) | 39.9 µM (inactive) | > 100 µM (inactive) | > 100 µM (inactive) | > 100 µM (inactive) | > 100 µM (inactive) | > 100 µM (inactive) | 57.4 µM (inactive) | > 100 µM (inactive) | 77.4 µM (inactive) | > 100 µM (inactive) |  | > 100 |  | 24.9 µM (inactive) |  |  | > 100 µM (inactive) | > 100 µM (inactive)
8 | CCOC(=O)C1=COC(C)(C)CC1=O | > 100 µM (inactive) | > 100 µM (inactive) | > 100 µM (inactive) | > 100 µM (inactive) | > 100 µM (inactive) | > 100 µM (inactive) | > 100 µM (inactive) | > 100 µM (inactive) | > 100 µM (inactive) | > 100 µM (inactive) | > 100 µM (inactive) |  | > 100 | > 100 µM (inactive) | > 100 µM (inactive) | > 100 µM (inactive) | > 100 µM (inactive) | > 100 µM (inactive) | > 100 µM (inactive)
9 | Cc1ccc2c(c1C)C(=O)/C(=C/c1ccccc1C(=O)O)C2 | > 100 µM (inactive) | > 100 µM (inactive) | > 100 µM (inactive) | 20.7 µM (inactive) | > 100 µM (inactive) | > 100 µM (inactive) | > 100 µM (inactive) | > 100 µM (inactive) |  | > 100 µM (inactive) | > 100 µM (inactive) | > 100 µM (inactive) | > 100 | > 100 µM (inactive) | > 100 µM (inactive) | > 100 µM (inactive) | > 100 µM (inactive) | > 100 µM (inactive) | > 100 µM (inactive)
10 | C/C(=N\Nc1nc2ccccc2s1)c1ncccn1 |  | 0.0345 µM (active) | 0.0614 µM (active) | 0.346 µM (active) | 0.0336 µM (active) | 0.131 µM (active) | < 0.0193 µM (active) | < 0.0501 µM (active) | < 0.0179 µM (active) | 0.118 µM (active) | < 0.01 µM (active) | < 0.0185 µM (active) | 0.0215 | < 0.01 µM (active) | 0.59 µM (active) | 0.0172 µM (active) | < 0.016 µM (active) | 0.316 µM (active) | < 0.01 µM (active)
11 | CC#CCCCC1(C)CCNC1=S (stereo not drawn) | > 10 µM (inactive) | > 10 µM (inactive) | > 10 µM (inactive) | > 10 µM (inactive) | > 10 µM (inactive) |  |  | > 10 µM (inactive) |  | > 10 µM (inactive) | > 10 µM (inactive) | > 10 µM (inactive) | > 10 | > 10 µM (inactive) | > 10 µM (inactive) |  | > 10 µM (inactive) | > 10 µM (inactive) | > 10 µM (inactive)
12 | CC(C)[Si]1(C(C)C)OCC2OC(n3ccc(=O)[nH]c3=O)C(O)(CO)C2O[Si](C(C)C)(C(C)C)O1 (stereo not drawn) |  | 13.8 µM (inactive) | 3.62 µM (inactive) | 16.8 µM (inactive) | 15.3 µM (inactive) | 19.4 µM (inactive) | 14.3 µM (inactive) | 18.4 µM (inactive) | 13.6 µM (inactive) | 13 µM (inactive) | 17.1 µM (inactive) | 21.2 µM (inactive) | 18.4 | 15 µM (inactive) | 3.31 µM (inactive) | 16 µM (inactive) | 15.5 µM (inactive) | 15.3 µM (inactive) | 12.3 µM (inactive)
